Measured values from US20190298772A1, “COMBINATION THERAPY OF A T CELL-BASED THERAPY AND A BTK INHIBITOR” (Juno Therapeutics, Inc., priority 2016, published 2019).

What was measured:
anti-CD19 CAR T cells [1] = test: TH1 phenotype and marker flow cytometry of CAR T cells from serial restimulation; type: cell-based, human
Protocol: (§1) The ability of cells to expand ex vivo following repeated stimulations in some aspects can indicates capacity of CAR-T cells to persist (e.g., following initial activation) and/or is indicative of function and/or fitness in vivo (Zhao et al. (2015) Cancer Cell, 28:415-28). Anti-CD19 CAR+ T cells generated as described above were plated in triplicate at 100,000 cells/well on 96 well Poly-D-Lysine coated plates, and irradiated target cells (K562-CD19) were added at an effector to target ratio of 2.5:1. […] A total of 7 rounds of stimulation during a 25 day culture period were carried out.
A serial restimulation assay was performed as described above and cells were harvested at various times and analyzed by flow cytometry to assess percentage of TH1-phenotype (assessed as CD4+CXCR3+CRTH2−) T cells or TH2-phenotype (assessed as CD4+CXCR3−CRTH2+).

[2] = tested on: anti-CD19 CAR-T cells from DLBCL subjects; test: Serial restimulation and cytolytic function of anti-CD19 CAR-T cells manufactured from DLBCL patients; type: cell-based, human
From the text: Anti-CD19 CAR-T cells were generated substantially as described in Example 1, except that T cells were isolated from two different human subjects having diffuse large B-cell lymphoma (DLBCL). […] Cells were subjected to serial restimulation over a 21 day culture period and monitored for cell expansion and cytotoxic activity.

anti-CD19 CAR T cells [3] = test: Expression of CAR-T cell surface markers by flow cytometry after stimulation with irradiated K562-CD19 cells; type: cell-based, human
From the text: (§2) To generate CAR-expressing T cells, T cells were isolated by immunoaffinity-based enrichment from three healthy human donor subjects, and cells from each donor were activated and transduced with a viral vector encoding an anti-CD19 CAR. The CAR contained an anti-CD19 scFv, an Ig-derived spacer, a human CD28-derived transmembrane domain, a human 4-1BB-derived intracellular signaling domain and a human CD3 zeta-derived signaling domain. The nucleic acid construct encoding the CAR also included a truncated EGFR (tEGFR) sequence for use as a transduction marker, separated from the CAR sequence by a self-cleaving T2A sequence.
(§3) CAR-expressing CD4+ and CD8+ cells were mixed 1:1 for each donor, individually, and the pooled cells for each donor assessed in vitro under various conditions.
CAR-T cells generated as described above were plated at 100,000 cells/well on 96 well Poly-D-Lysine coated plates. Irradiated K562-CD19 target cells were added at an effector to target ratio of 2.5:1. […] Cells were harvested at 1, 2, 3, and 4 days, and were analyzed by flow cytometry for T cell activation and differentiation surface markers CD69, CD107a, PD-1, CD25, CD38, CD39, CD95, CD62L, CCR7, CD45RO and for truncated EGFR (a surrogate marker for CAR-transduced cells).

anti-CD19 CAR T cells [4] = test: Cytokine production in supernatants of CAR-T / K562-CD19 co-cultures (MSD); type: cell-based, human
From the text: as §2, §3
CAR-T cells generated as described above were plated at 100,000 cells/well on 96 well Poly-D-Lysine coated plates to which irradiated target cells (K562-CD19) were added at an effector to target ratio of 2.5:1. […] Culture supernatants were harvested every 24 hrs at days 1, 2, 3 and 4, and IFNγ, IL-2, TNFα, IL-4 and IL-10 were measured from the culture supernatants using cytokine kits from Meso Scale Discovery (MSD).

anti-CD19 CAR T cells [5] = test: Gene expression analysis (Nanostring Immune V2 panel) after 18 days serial stimulation; type: cell-based, human; settings: 50 nM or 500 nM; day 18
From the text: At day 18 after serial stimulation, RNA was isolated from anti-CD19 CAR T cells and Nanostring Immune V2 panel tests were run across 594 genes. The log 2 (fold change) of each gene was plotted against the −log 10(Raw p-value) derived from ANOVA tests of unscaled housekeeping gene normalized to count data for treatment versus control.

anti-CD19 CAR T cells [6] = test: Serial restimulation assay of anti-CD19 CAR+ T cells with K562-CD19 target cells; type: cell-based, human
From the text: as §2, §3, §1

anti-CD19 CAR+ T cells [7] = test: Pharmacokinetic analysis of CAR+ T cells and tumor cells in blood, bone marrow and spleen; type: in vivo, NSG mice
Protocol: (§4) NSG mice described in Example 2 were intravenously injected on day 0 with 5×10^5 Nalm-6 cells expressing firefly luciferase. […] To permit assessment of the effect of a combination therapy with the inhibitor, a suboptimal dose of anti-CD19 CAR T cells was i.v. injected into the mice at 5×10^5/mouse at day 5. As a control, mice were administered the vehicle control without administration of the CAR-T cells or inhibitor.
Samples were analyzed to assess presence and levels of CAR T cells (based on expression of the surrogate marker using an anti-EGFR antibody) and/or tumor cells at days 7, 12, 19 and 26 post CAR+ T cell transfer.

CAR-expressing T cells = test: RNA-Seq molecular signature of CAR-expressing T cells after 18 days serial stimulation; type: cell-based, human; settings: day 18
Protocol: RNA isolation was performed using the RNEasy Micro Kit (Qiagen). Samples were sequenced and RNASeq reads were mapped to the human genome (GRCh38) and aligned to the GENCODE release 24 gene model. […] Differentially expressed genes were identified by imposing a log2 fold change cutoff of 0.5 and a Benjamini-Hochberg adjusted false discovery rate (FDR) cutoff of 0.05.

anti-CD19 CAR+ T cells [8] = test: Ex vivo immunophenotyping (t-SNE) of CAR+ T cells from bone marrow at day 12; type: in vivo, NSG mice; settings: day 12 post CAR T transfer
Protocol: as §4
Cells were assessed for surface markers CD44, CD45RA, CD62L, CD154, CXCR3, CXCR4, and PD-1 by flow cytometry and T-distributed stochastic neighbor embedding (t-SNE) high dimensional analysis was performed using FlowJo software. […] FACs histograms showing the individual expression profiles of CD4, CD8, CD62L, CD45RA, CD44 and CXCR3 from the 4 gated t-SNE in FIG. 8B overlaid on the expression of the total population (shaded) is shown in FIG. 8C.

anti-CD19 CAR T cells [9] = test: Cytolytic activity of anti-CD19 CAR T cells co-cultured with K562-CD19 target cells in the presence of ibrutinib; type: cell-based, human
From the text: as §2, §3
CAR T cells generated as described above were plated in triplicate on Poly-D-Lysine plates and then co-cultured with ibrutinib-resistant CD19-expressing target cells (K562 cells transduced to express CD19, K562-CD19) at an effector to target (E:T) ratio of 2.5:1. The target cells were labeled with NucLight Red (NLR), to permit tracking of target cells by microscopy.

[10] = tested on: CD19+Nalm-6 disseminated tumor line; test: Nalm-6 disseminated tumor xenograft mouse model, ibrutinib by daily oral gavage; type: in vivo, NOD/Scid/gc−/− (NSG) mice
From the text: On day zero (0), NSG mice were intravenously injected with 5×10^5 Nalm-6 cells expressing firefly luciferase. […] To permit assessment of the effect of a combination therapy with the inhibitor, a suboptimal dose of anti-CD19 CAR T cells from two different donors (generated by transducing cells derived from samples of human donor subjects essentially as described above) were i.v. injected into each mouse at a concentration of 5×10^5 CAR+ T cells per mouse at day 5. […] Eight (N=8) mice per group were monitored.
Following treatment as described above, tumor growth over time was measured by bioluminescence imaging and the average radiance (p/s/cm^2/sr) was measured. Survival of treated mice also was assessed over time.

[11] = tested on: CD19+Nalm-6 disseminated tumor line; test: Nalm-6 disseminated tumor xenograft mouse model, ibrutinib in drinking water; type: in vivo, NSG mice
Protocol: as §4

## C=CC(=O)N1CCC[C@@H](n2nc(-c3ccc(Oc4ccccc4)cc3)c3c(N)ncnc32)C1 [ibrutinib]
anti-CD19 CAR T cells [1]; 500 nM, 18-day serial stimulation, P<0.01
  percentage of TH1 cells: further enhanced the percentage of TH1 cells
anti-CD19 CAR T cells [1]; CAR T cells from serial stimulation assay
  additional CAR T activation or memory markers: No significant effects
anti-CD19 CAR T cells [1]; after serial stimulation, greater with increasing concentrations
  percentage of CAR+ T cells with TH1 phenotype (CD4+CXCR3+CRTH2−): increase the percentage
[2]; 50 nM, after 16 days, one patient, P<0.01
  cytolytic activity: increase in cytolytic activity
[2]; 500 nM, after 16 days serial stimulation, each subject
  cytolytic function: increase in cytolytic function
[2]; 50 and 500 nM, 21 day culture, two DLBCL patients
  proliferation (cell doublings) of patient-derived CAR T cells: did not inhibit the proliferation
anti-CD19 CAR T cells [3]; 5000, 500, 50, 5 and 0.5 nM, 3 donors, up to 4 days
  expression of truncated EGFR, CD25, CD38, CD39, CD95, CD62L, CCR7, CD45RO: no significant effect
anti-CD19 CAR T cells [3]; over four days after stimulation
  phenotype as central (TCM) or effector (TEM) memory subsets (CCR7, CD45RA): did not affect the phenotype
anti-CD19 CAR T cells [3]; seen at highest (supraphysiological) concentration
  expression levels of CD69, CD107a or PD-1 on CD4+ or CD8+ cells: subtle decrease
anti-CD19 CAR T cells [4]; 50 nM ibrutinib
  IFN-γ and IL-2 production: some increase
anti-CD19 CAR T cells [4]; 50 nM ibrutinib, some donors
  cytokine production: modestly increased cytokine production
anti-CD19 CAR T cells [4]; physiological concentrations of ibrutinib
  cytokine concentrations: did not significantly decrease cytokine concentrations
anti-CD19 CAR T cells [5]
  gene expression across 594 genes: did not significantly alter gene expression
anti-CD19 CAR T cells [6]; after 18 days serial stimulation, donors 2 and 3
  CD62L expression by flow cytometry: significant increase in CD62L expression
anti-CD19 CAR T cells [6]; day 18, 50 and 500 nM, two of three donors
  cell numbers and population doublings: enhanced cell numbers and population doublings
anti-CD19 CAR T cells [6]; donor 3, day 18, highest concentration tested
  cell counts: Non-significant, increased cell counts
anti-CD19 CAR+ T cells [7]; CAR+ cell treatment combined with ibrutinib
  tumor cells in blood, bone marrow or spleen vs vehicle: significantly fewer tumor cells
anti-CD19 CAR+ T cells [7]; blood, days 7-26 post transfer, ibrutinib in drinking water
  circulating CAR+ T cells vs CAR+ T cells and vehicle: significant increase in circulating CAR+ T cells
anti-CD19 CAR+ T cells [7]; day 19 post CAR-T cell transfer, p<0.05
  number of cells in the blood: significant increase in the number of cells in the blood
CAR-expressing T cells; 50 nM
  gene expression changes: not significant, similar trends
CAR-expressing T cells; 500 nM, FDR<0.05, absLog2FC>0.5
  number of protein-coding genes with significantly altered expression: 23
CAR-expressing T cells; ibrutinib vs control
  expression of HES6, HIC1, LZTFL1, NRIP1, CD38 and RARRES3: downregulation
  expression of MSC: upregulation
  expression of SELL/CD62L: increases
  expression of granzyme A and CD38: decreases
anti-CD19 CAR+ T cells [8]; bone marrow, ibrutinib-treated animals
  population 4 (CD4+CD44hi CXCR3 CD45RAhi CD62Lhi) as share of CAR-T cells: 15.2%
anti-CD19 CAR+ T cells [8]; CAR T plus ibrutinib
  populations 2 and 4 in bone marrow vs control mice: increase
anti-CD19 CAR T cells [9]; all concentrations tested (5000, 500, 50, 5, 0.5 nM) during co-culture
  cytolytic function of anti-CD19 CAR T cells: did not inhibit the cytolytic function
anti-CD19 CAR T cells [9]; one donor, P<0.0001
  target cell killing: modestly increased target cell killing
anti-CD19 CAR T cells [9]; two donors, up to supra-physiological 500 nM, E:T 2.5:1, 4 days
  cytolytic activity of anti-CD19 CAR-expressing T cells (target cell killing normalized to untreated control, AUC): did not significantly impact cytolytic activity
[10]; ibrutinib 25 mg/kg qd P.O. plus suboptimal anti-CD19 CAR T cells, FIG. 6C
  median survival vs CAR T + vehicle: increased median survival
[10]; ibrutinib 25 mg/kg qd P.O. plus suboptimal dose anti-CD19 CAR T cells
  tumor growth vs CAR-T cells and vehicle: significantly decreased tumor growth
[10]; ibrutinib alone, 25 mg/kg qd P.O., no CAR-T cells
  tumor burden (average radiance) vs vehicle: no effect on tumor burden
[10]; ibrutinib plus CAR T, two donors, FIG. 6D, p<0.001
  survival at greater time points vs CAR T and vehicle: significantly increased survival
[11]; ibrutinib 25 mg/kg/day in drinking water plus CAR T
  tumor growth vs CAR T with vehicle: significantly (P<0.001) decreased tumor growth
[11]; ibrutinib 25 mg/kg/day in drinking water plus suboptimal anti-CD19 CAR-T cells, p<0.001
  median survival vs CAR T + vehicle: increased median survival
